Experimental data as given in patent US20240366775A1, “HUMAN TRANSFERRIN RECEPTOR BINDING ANTIBODY-PEPTIDE CONJUGATE” (PEPTIDREAM INC., priority 2021, published 2024).
pKd: −log10 of the molar value. Where a SMILES comes first, the peptide text is derived from it. Bridges are numbered along the chain shown (N, C = ends). [ ]: non-standard residue; d: D form. The star is where a group is joined. NMeY = CN[C@@H](Cc1ccc(O)cc1)C(=O)O; NMeF = CN[C@@H](Cc1ccccc1)C(=O)O; OSu = O=C1CCC(=O)N1O*; GABA = NCCCC(=O)O

How the values were obtained:
[1] = ELISA no-target control wells (non-specific binding of antibodies and antibody-peptide conjugates); details: sample at 100 nM, no target immobilized
Description: Random biotinylated PD-1 was added to IMMOBILIZER STREPTAVIDIN F96 clear (NUNC, Cat. No. 436014) at 1 μmol per one well and incubated at 4° C. overnight to perform solidification. The plate was washed with 900 μL of PBST in a plate washer (TECAN, HydroSpeed). 300 μL of 1% Block Ace (KAC Co., Ltd., Cat. No. UK-B80) was added per one well and incubated at room temperature for 90 minutes to perform blocking treatment. The plate was washed with 900 μL of PBST in the plate washer. […] The plate was washed with 900 μL of PBST in the plate washer. 50 μL of Goat Anti-Human IgG H&L (HRP) (Abcam, Cat. No. ab97165) diluted 50,000 times with PBST-0.1% Block Ace solution was added and incubated at room temperature for 45 min. The plate was washed with 900 μL of PBST in the plate washer. 50 μL of TMB Solution (Sara care, Cat. No. 5150-0077) at room temperature was added and color development was performed at room temperature for 10 min in dark place, then 50 μL of TMB Stop Solution (Sara care, Cat. No. 5150-0021) was added to stop the color development. The absorbance at 450 nm was measured in a plate reader (Enspir (trademark), Perkin Elmer).
(§1) Random biotinylated TfR was added to IMMOBILIZER STREPTAVIDIN F96 clear (NUNC, Cat. No. 436014) at 1 μmol per one well and incubated at 4° C. overnight to perform solidification. The plate was washed with 900 μL of PBST in a plate washer (TECAN, HydroSpeed). 300 μL of 1% Block Ace (KAC Co., Ltd., Cat. No. UK-B80) was added per one well and incubated at room temperature for 90 minutes to perform blocking treatment. The plate was washed with 900 μL of PBST in the plate washer. 50 μL of various antibody-peptide conjugate and antibody whose peptide is not modified diluted to a final concentration of 100 nM by 50 mM HEPES pH 7.8-0.1% Block Ace were added and incubated at room temperature for 60 min. The plate was washed with 900 μL of PBST in the plate washer. 50 μL of Goat Anti-Human IgG H&L (HRP) (Abcam, Cat. No. ab97165) diluted 50,000 times with PBST-0.1% Block Ace solution was added and incubated at room temperature for 45 min. The plate was washed with 900 μL of PBST in the plate washer. 50 μL of TMB Solution (Sara care, Cat. No. 5150-0077) at room temperature was added and color development was performed at room temperature for 10 min in dark place, then 50 μL of TMB Stop Solution (Sara care, Cat. No. 5150-0021) was added to stop the color development. The absorbance at 450 nm was measured in a plate reader (Enspir (trademark), Perkin Elmer).

[2] = molecular target: human transferrin receptor (hTfR) (Homo sapiens, UniProt P02786); assay: SPR measurement of peptide binding to hTfR; details: naked peptide (1st to 15th amino acids, without linker part) corresponding to the listed linker-attached peptide; read-out: SPR of naked peptide (KD for binding to hTfR)
Chain of human transferrin receptor (hTfR) (P02786 whole entry): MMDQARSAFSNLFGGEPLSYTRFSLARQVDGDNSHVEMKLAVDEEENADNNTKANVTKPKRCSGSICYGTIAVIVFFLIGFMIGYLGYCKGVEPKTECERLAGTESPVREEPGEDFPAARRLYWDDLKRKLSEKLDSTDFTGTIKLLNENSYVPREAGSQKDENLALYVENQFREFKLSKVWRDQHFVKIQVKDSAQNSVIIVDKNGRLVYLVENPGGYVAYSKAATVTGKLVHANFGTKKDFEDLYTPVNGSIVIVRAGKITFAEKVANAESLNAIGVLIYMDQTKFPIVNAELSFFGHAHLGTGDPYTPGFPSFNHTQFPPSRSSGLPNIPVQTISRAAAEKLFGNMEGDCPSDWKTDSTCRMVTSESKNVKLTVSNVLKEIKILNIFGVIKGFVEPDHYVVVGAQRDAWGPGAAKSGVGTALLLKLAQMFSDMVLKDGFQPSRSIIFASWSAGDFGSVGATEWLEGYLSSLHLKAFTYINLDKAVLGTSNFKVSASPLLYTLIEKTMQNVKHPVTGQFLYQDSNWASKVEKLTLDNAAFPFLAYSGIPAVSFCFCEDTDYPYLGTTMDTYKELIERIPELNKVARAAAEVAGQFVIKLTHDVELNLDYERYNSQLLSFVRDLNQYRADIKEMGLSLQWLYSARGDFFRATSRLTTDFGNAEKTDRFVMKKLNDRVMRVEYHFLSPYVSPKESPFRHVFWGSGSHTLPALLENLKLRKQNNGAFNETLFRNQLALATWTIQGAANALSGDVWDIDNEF
Excerpt: Note that ND indicates No Data (here, it means that no data was obtained).

[3] = molecular target: T1, PD-L1 (Homo sapiens, UniProt Q9NZQ7); assay: ELISA bindability of atezolizumab-peptide conjugate to PD-L1; type: binding; details: sample at 100 nM, average absorbance of two measurements
T1 construct: purchased R&D SYSTEMS 9049-B7
T1 sequence (Q9NZQ7 19-290): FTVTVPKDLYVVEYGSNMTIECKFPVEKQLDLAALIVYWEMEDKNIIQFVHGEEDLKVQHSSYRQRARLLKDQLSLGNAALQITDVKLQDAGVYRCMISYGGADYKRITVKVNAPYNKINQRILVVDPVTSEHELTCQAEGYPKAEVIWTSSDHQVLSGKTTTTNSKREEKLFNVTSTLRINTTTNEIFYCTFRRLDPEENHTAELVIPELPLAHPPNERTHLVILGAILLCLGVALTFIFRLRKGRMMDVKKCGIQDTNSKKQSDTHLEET
Description: The bindability of atezolizumab-peptide conjugates to the antigen PD-L1 was measured by ELISA.
100 μg of PD-L1 (R&D SYSTEMS, Cat. No. 9049-B7) was dissolved in PBS (Nacalai Tesque, Inc., Cat. No. 27575-31) to a final concentration of 1 g/L. To the dissolved PD-L1, 5 equivalents of 10 mM NHS-PEG4-Biotin (Thermo Scientific, Cat. No. A39259) was added and incubated at 4° C. overnight to biotinylate PD-L1. To a column packed with 1 mL of Bio-Gel P-6 (Bio-Rad, Cat. No. 1504130), swollen with a solution of polyoxyethylene sorbitan monolaurate (Nacalai Tesque, Inc., Cat. No. 28353-85) added to PBS to a final concentration of 0.1% (PBST), 100 μL of the above solution was added per one column to remove unreacted NHS-PEG4-Biotin.
Random biotinylated PD-L1 was added to IMMOBILIZER STREPTAVIDIN F96 clear (NUNC, Cat. No. 436014) at 1 μmol per one well and incubated at 4° C. overnight to perform solidification. The plate was washed with 900 μL of PBST in a plate washer (TECAN, HydroSpeed). 300 μL of 1% Block Ace (KAC Co., Ltd., Cat. No. UK-B80) was added per one well and incubated at room temperature for 90 minutes to perform blocking treatment. The plate was washed with 900 μL of PBST in the plate washer. […] The absorbance at 450 nm was measured in a plate reader (Enspir (trademark), Perkin Elmer).

[4] = molecular target: T2, human TfR (Homo sapiens, UniProt P02786); assay: ELISA bindability of various antibody-peptide conjugates to TfR; type: binding; details: sample at 100 nM, average absorbance of two measurements
T2 construct: made in house
T2 sequence (P02786 whole entry): as the sequence (P02786 whole entry) above
Description: as §1

[5] = Test substance concentration in plasma, hTfR-KI mouse; type: in vivo, hTfR-KI mice; details: Example 7-2, tail vein 5 mg/kg, 1, 3, 6 and 24 hours, FIG. 2-3
Description: Blood was drawn from the tail vein after 1 and 3 hours from administration (2 mice/time point). After 6 and 24 hours from administration, mice were anesthetized with isoflurane, blood was drawn from the right ventricle, and then perfused with saline from the left ventricle for 4 to 5 min for blood removing treatment. Blood was collected using an EDTA-2K-treated needle and syringe, and the collected blood was kept on ice until it was separated into plasma.
To Strept Avidin plate (Meso Scale Diagnostics, LLC), 150 μL/well of Blocker Casein in PBS (Thermo Fisher Scientific, Inc.) was added and shaken (26° C., 500 rpm) for 60 min in a plate shaker (Biosan) to perform blocking treatment. The Blocker Casein in PBS was removed from the Strept Avidin plates, and 200 μL/well of PBST was added to each plate and washed. 25 μL/well of Capture antibody solution was added to each Strept Avidin plate, and the plates were shaken (26° C., 500 rpm) for 60 min in a plate shaker. Capture antibody solution was removed and PBST was added 200 μL/well and washed. This washing operation was performed three times. […] The concentration of each test substance in the samples were calculated by adding 150 μL/well of 2×Read Buffer T to each Strept Avidin plate and measuring with a plate reader (Sector S600, Meso Scale Diagnostics, LLC).

[6] = Test substance concentration in tissue (brain migration), hTfR-KI mouse; type: in vivo, hTfR-KI mice; details: Example 7-2, tail vein 5 mg/kg, 6 and 24 hours, heart, lung, liver, spleen, kidney, quadriceps muscle, FIG. 2-4
Description: Blood was drawn from the tail vein after 1 and 3 hours from administration (2 mice/time point). After 6 and 24 hours from administration, mice were anesthetized with isoflurane, blood was drawn from the right ventricle, and then perfused with saline from the left ventricle for 4 to 5 min for blood removing treatment. Blood was collected using an EDTA-2K-treated needle and syringe, and the collected blood was kept on ice until it was separated into plasma. After blood removing treatment, brains were harvested and divided into left and right portions, and the left brain was embedded in a freeze-embedding agent (OCT compound, Sakura Finetek Co., Ltd.) for immunostaining and a frozen block was prepared. The right brain, heart, lung, liver, spleen, kidney, and quadriceps muscle were collected for measurement of test substance concentrations in tissues, weighed, flash-frozen in liquid nitrogen, and stored at −70° C. or less. […]
To Strept Avidin plate (Meso Scale Diagnostics, LLC), 150 μL/well of Blocker Casein in PBS (Thermo Fisher Scientific, Inc.) was added and shaken (26° C., 500 rpm) for 60 min in a plate shaker (Biosan) to perform blocking treatment. […] The concentration of each test substance in the samples were calculated by adding 150 μL/well of 2×Read Buffer T to each Strept Avidin plate and measuring with a plate reader (Sector S600, Meso Scale Diagnostics, LLC).

Abs450 nm at 100 nM, No-target [1]	pKd [2]	Molecule	further results
0.0455		pertuzumab	
0.0415		pembrolizumab	
0.044		ipilimumab	
	> 9.00	CC[C@H](C)[C@@H]1NC(=O)[C@H](Cc2ccc(O)cc2)NC(=O)[C@H](Cc2ccc(O)cc2)NC(=O)[C@H](CC(N)=O)NC(=O)[C@H](Cc2c[nH]c3ccccc23)NC(=O)[C@H](C(C)C)NC(=O)[C@H](Cc2ccccc2)NC(=O)[C@H](C(C)C)NC(=O)[C@H](C)NC(=O)CSC[C@@H](C(=O)NCCOCCOCCOCCOCCC(=O)NN)NC(=O)[C@H](Cc2ccc(O)cc2)N(C)C(=O)[C@H](Cc2ccc(O)cc2)NC(=O)[C@H](CCCNC(=N)N)NC(=O)[C@H](CCCNC(=N)N)NC(=O)[C@H]([C@@H](C)CC)NC1=O [hTIR 000894_PEG4_(Hydrazide)]	
	> 9.00	CC[C@H](C)[C@@H]1NC(=O)[C@H](Cc2ccc(O)cc2)NC(=O)[C@H](Cc2ccc(O)cc2)NC(=O)[C@H](CC(N)=O)NC(=O)[C@H](Cc2c[nH]c3ccccc23)NC(=O)[C@H](C(C)C)NC(=O)[C@H](Cc2ccccc2)NC(=O)[C@H](C(C)C)NC(=O)[C@H](C)NC(=O)CSC[C@@H](C(=O)NCC(=O)N[C@@H](CCC(=O)O)C(=O)NCC(=O)N[C@@H](CCC(=O)O)C(=O)NCCOCCOCCOCCOCCOCCOCCOCCOCCOCCOCCOCCOCCC(=O)NN)NC(=O)[C@H](Cc2ccc(O)cc2)N(C)C(=O)[C@H](Cc2ccc(O)cc2)NC(=O)[C@H](CCCNC(=N)N)NC(=O)[C@H](CCCNC(=N)N)NC(=O)[C@H]([C@@H](C)CC)NC1=O [hTfR_894_(GEGE)PEG12_Hydrazide]	

More lines, now with the values behind:

Molecule	Abs450 nm at 100 nM, No-target [1]	pKd [2]	further results
CC[C@H](C)[C@@H]1NC(=O)[C@H](Cc2ccc(O)cc2)NC(=O)[C@H](Cc2ccc(O)cc2)NC(=O)[C@H](CC(N)=O)NC(=O)[C@H](Cc2c[nH]c3ccccc23)NC(=O)[C@H](C(C)C)NC(=O)[C@H](Cc2ccccc2)N(C)C(=O)[C@H](C(C)C)NC(=O)[C@H](C)NC(=O)CSC[C@@H](C(=O)NCC(=O)NCC(=O)N[C@@H](CCC(N)=O)C(=O)NCC(=O)N[C@@H](CCC(N)=O)C(=O)N[C@@H](CO)C(=O)NCC(=O)NCC(=O)N[C@@H](CCC(N)=O)C(=O)NCC(=O)N[C@@H](CCC(N)=O)C(=O)N[C@@H](CO)C(=O)NCCCC(=O)ON2C(=O)CCC2=O)NC(=O)[C@H](Cc2ccc(O)cc2)N(C)C(=O)[C@H](Cc2ccc(O)cc2)NC(=O)[C@H](CCCNC(=N)N)NC(=O)[C@H](CCCNC(=N)N)NC(=O)[C@H]([C@@H](C)CC)NC1=O [894_3m_GGQGQSx2_gAbu(NHS)] ({CH2CO}-AV[NMeF]VWNYYIIRRY[NMeY]CGGQGQSGGQGQS[GABA]-OSu; thioether N-15)		7.00 to 9.00	
CC[C@H](C)[C@@H]1NC(=O)[C@H](Cc2ccc(O)cc2)NC(=O)[C@H](Cc2ccc(O)cc2)NC(=O)[C@H](CC(N)=O)NC(=O)[C@H](Cc2c[nH]c3ccccc23)N(C)C(=O)[C@H](C(C)C)NC(=O)[C@H](Cc2ccccc2)NC(=O)[C@H](C(C)C)NC(=O)[C@H](C)NC(=O)CSC[C@@H](C(=O)NCCOCCOCCOCCOCCOCCOCCOCCOCCC(=O)N[C@@H](CCCCNC(=O)C2CCC(CN3C(=O)C=CC3=O)CC2)C(N)=O)NC(=O)[C@H](Cc2ccc(O)cc2)N(C)C(=O)[C@H](Cc2ccc(O)cc2)NC(=O)[C@H](CCCNC(=N)N)NC(=O)[C@H](CCCNC(=N)N)NC(=O)[C@H]([C@@H](C)CC)NC1=O (stereo partly shown) [894_5m_PEG08_K(Mal)]		> 9.00	
CC[C@H](C)[C@@H]1NC(=O)[C@H](Cc2ccc(O)cc2)NC(=O)[C@H](Cc2ccc(O)cc2)NC(=O)[C@H](CC(N)=O)NC(=O)[C@H](Cc2c[nH]c3ccccc23)NC(=O)[C@H](C(C)C)NC(=O)[C@H](Cc2ccccc2)N(C)C(=O)[C@H](C(C)C)NC(=O)[C@H](C)NC(=O)CSC[C@@H](C(=O)NCC(=O)NCC(=O)NCC(=O)NCC(=O)N[C@@H](CO)C(=O)N[C@@H](CO)C(=O)N[C@@H](CCCCn2cc(CN3C(=O)C=CC3=O)nn2)C(N)=O)NC(=O)[C@H](Cc2ccc(O)cc2)N(C)C(=O)[C@H](Cc2ccc(O)cc2)NC(=O)[C@H](CCCNC(=N)N)NC(=O)[C@H](CCCCN)NC(=O)[C@H]([C@@H](C)CC)NC1=O [894_11K_3MeF_G4S2_KTrzMal]		7.00 to 9.00	
atezolizumab	0.043		Abs450 nm at 100 nM, Target PD-L1 [3]: 2.237; Abs450 nm at 100 nM, Target hTfR [4]: 0.0465
nivolumab [Nivolumab (control)]			concentration in plasma, time course [5]: detected in plasma at all time points evaluated and showed biphasic changes in plasma concentrations; detection in tissues [6]: detected in all tissues
